Positions of bridges follow the written chain, without caps; N, C: chain ends. Residues, ends and D or L forms follow the SMILES beside them.
Key:
hKv1.2-P359S = target: T1, hKv1.2-P359S (Homo sapiens, UniProt P16389, P359S); experiment: Whole-cell patch clamp, hKv1.2 channel mutant P359S; format: cell-based; conditions: 100 nM peptide, HEK293T, mean ± S.E., n ≥ 3, SEM
T1 construct: expressed in transfected cells; host or cells: HEK293T
Procedure: (§1) To determine the functional sites of the hKv1.2 channel responsible for the selectivity of BmK86-P1, six hKv1.2 mutants were obtained based on sequence differences between the pore regions of the hKv1.2 and hKv1.1 channels (Figure 4A). Then, the activities of 100 nM BmK86-P1 on these six mutant channels were tested. […] The other three mutant channels (hKv1.2-D352E, hKv1.2-R354A and hKv1.2-P359S) still kept similar sensitivities toward BmK86-P1 compared with the wild-type hKv1.2 channel (Figure 4H,I,K,N).
(§2) All potassium channel expression vectors were given by others or constructed by ourselves. HEK293T cells were cultured in Dulbecco’s modified Eagle medium (Gibco, Pittsburgh, PA, USA) with 10% fetal bovine serum and penicillin/streptomycin (100 units/mL) in a 5% CO2 incubator at 37 °C. Potassium channel expression vectors and pEGFP-N1 were co-transfected into HEK293T cells using TurboFect in vitro Transfection Reagent (Thermo Scientific, Waltham, MA, USA) according to the manufacturer’s instructions. The potassium currents were recorded after transfection for 1 to 3 days.
(§3) The channel currents were measured and recorded by whole-cell patch clamp technology according to previously published references. […] The channel currents were recorded at room temperature (~25 °C) using an EPC 10 patch clamp amplifier. […]

rKv4.3 channel = experiment: Whole-cell patch clamp, rKv4.3 channel overexpressed in HEK293T cells; format: cell-based, rat; conditions: 1 μM peptide, mean ± S.E., n ≥ 3, SEM
Procedure: (§4) To investigate the electrophysiological activities of BmK86-P1, the whole-cell patch clamp technique was applied to test the effects of BmK86-P1 on multiple potassium channels. The hKv1.1, hKv1.2, hKv1.3, hKv1.6, hKv3.2, mKv4.1, rKv4.2, rKv4.3 and hERG channels were overexpressed in HEK293T cells, then the inhibitory effects of BmK86-P1 at 1 μM on these potassium channels were measured. […] To further investigate the affinity of BmK86-P1 inhibiting the hKv1.2 channel, a dose-dependent study was performed by examining the inhibitory effects of different concentrations of BmK86-P1.
(§5) All potassium channel expression vectors were given by others or constructed by ourselves. HEK293T cells were cultured in Dulbecco’s modified Eagle medium (Gibco, Pittsburgh, PA, USA) with 10% fetal bovine serum and penicillin/streptomycin (100 units/mL) in a 5% CO2 incubator at 37 °C. […] The potassium currents were recorded after transfection for 1 to 3 days.
as §3
(§6) The ClampFit (Molecular Devices, Sunnyvale, CA, USA) and SigmaPlot software ([…], Chicago, IL, USA) were used to analyze the recorded data. […]

hKv1.3 channel = target: T2, hKv1.3 channel (Homo sapiens, UniProt P22001); experiment: Whole-cell patch clamp, hKv1.3 channel overexpressed in HEK293T cells; format: cell-based; conditions: 1 μM peptide, room temperature (~25 °C), mean ± S.E., n ≥ 3, SEM
T2 construct: expressed in transfected cells; host or cells: HEK293T
T2 sequence (P22001 whole entry): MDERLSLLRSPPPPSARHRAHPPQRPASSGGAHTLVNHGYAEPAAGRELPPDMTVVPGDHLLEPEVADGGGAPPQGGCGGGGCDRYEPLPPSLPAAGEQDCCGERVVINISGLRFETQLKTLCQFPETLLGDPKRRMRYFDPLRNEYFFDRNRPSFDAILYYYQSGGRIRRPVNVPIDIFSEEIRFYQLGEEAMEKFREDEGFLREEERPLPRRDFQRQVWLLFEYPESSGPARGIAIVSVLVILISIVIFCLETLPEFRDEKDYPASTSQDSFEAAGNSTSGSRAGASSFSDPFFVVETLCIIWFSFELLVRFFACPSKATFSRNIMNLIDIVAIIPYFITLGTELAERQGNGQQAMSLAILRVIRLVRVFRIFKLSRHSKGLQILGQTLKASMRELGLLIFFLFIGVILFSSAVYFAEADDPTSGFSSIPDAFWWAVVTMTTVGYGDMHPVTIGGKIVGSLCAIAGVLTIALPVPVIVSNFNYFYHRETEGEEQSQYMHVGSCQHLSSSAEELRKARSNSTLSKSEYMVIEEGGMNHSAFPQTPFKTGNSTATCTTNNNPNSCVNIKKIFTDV
Procedure: as §4, §5, §3, §6

hKv1.2-Q357H = target: T3, hKv1.2-Q357H (Homo sapiens, UniProt P16389, Q357H); experiment: Whole-cell patch clamp, hKv1.2 channel mutant Q357H; format: cell-based; conditions: 100 nM peptide, HEK293T, mean ± S.E., n ≥ 3, SEM
T3 construct: expressed in transfected cells; host or cells: HEK293T
T3 sequence (P16389 whole entry Q357H): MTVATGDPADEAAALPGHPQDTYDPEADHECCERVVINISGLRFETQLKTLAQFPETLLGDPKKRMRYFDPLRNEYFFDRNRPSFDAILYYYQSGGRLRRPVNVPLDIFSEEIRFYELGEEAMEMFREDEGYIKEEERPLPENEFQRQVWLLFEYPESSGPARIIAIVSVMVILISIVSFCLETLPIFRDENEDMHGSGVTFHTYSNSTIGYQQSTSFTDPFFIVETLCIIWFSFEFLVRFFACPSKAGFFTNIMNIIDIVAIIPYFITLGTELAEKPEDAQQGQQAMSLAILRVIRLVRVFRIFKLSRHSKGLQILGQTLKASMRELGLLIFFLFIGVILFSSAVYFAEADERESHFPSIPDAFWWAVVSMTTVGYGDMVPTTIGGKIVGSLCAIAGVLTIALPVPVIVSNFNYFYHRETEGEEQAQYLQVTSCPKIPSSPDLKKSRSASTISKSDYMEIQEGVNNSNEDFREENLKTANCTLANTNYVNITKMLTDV
Procedure: as §1, §2, §3

Kv1.3 channel = conditions: read-out: IC50, inhibition of the current of Kv1.3 channel; cited from earlier work
Description: The BmK86 toxin gene was first discovered from the venom gland cDNA library of Mesobuthus martensii Karsch. It encodes a signal peptide with 22 amino acid residues and a mature toxin with 35 residues (Figure 6A). The stretch of six amino acids in the N-terminus of BmK86 was thought to be a signal peptide rather than the N-terminal portion of the mature peptide. […] BmK86 could inhibit the c ...

[1] = target: T4, hKv1.2-M3 chimeric channel (Homo sapiens, UniProt P16389, T383V/V381Y); experiment: Whole-cell patch clamp, chimeric channel hKv1.2-M3 (turret or filter region of hKv1.2 substituted by that of hKv1.1); format: cell-based; conditions: 100 nM peptide, HEK293T, mean ± S.E., n ≥ 3, SEM
T4 construct: expressed in transfected cells; host or cells: HEK293T
T4 sequence (P16389 whole entry V381Y/T383V): as the sequence (P16389 whole entry Q357H) above, with H357Q, V381Y, T383V counted along it
Description: The turret and filter region of potassium channels have different effects on the toxin binding for different scorpion toxins. To investigate the importance of these two regions of potassium channels in interacting with BmK86-P1, another two channel chimeras (i.e., hKv1.2-M2 and hKv1.2-M3) were constructed, in which the turret or the filter region of the hKv1.2 channel was substituted by the equivalent region of the hKv1.1 channel.
as §2
as §3, with “references. The internal patch pipette solution and the bath solution were prepared as previously described.” for “references.”

[2] = Thermal stability of secondary structure by CD spectroscopy; format: physicochemical; conditions: 0.2 mg/mL in ddH2O, 20, 35, 50, 65, 80 and 95 °C, then returned to 20 °C, average of three scans
Procedure: In order to characterize the thermal stability of BmK86-P1, we analyzed the secondary structure of BmK86-P1 peptide in aqueous solutions at different temperatures (20 °C, 35 °C, 50 °C, 65 °C, 80 °C and 95 °C) by CD spectroscopy.
The secondary structures of BmK86-P1 and its mutants in water were measured by circular dichroism (CD) spectroscopy as previously described using a ChirascanTM V^100 spectrometer (Applied Photophysics, Surrey, UK). All the peptides were dissolved into ddH2O at a concentration of 0.2 mg/mL. At a range of wavelengths from 180 to 260 nm, the absorption spectra of peptides were recorded at room temperature. The speed scanning was 1 nm/s with a response time of 1 s. […] (deg·cm^2·dmol^−1).

T1 sequence (P16389 whole entry P359S): as the sequence (P16389 whole entry Q357H) above, with H357Q, P359S counted along it

CC[C@H](C)[C@@H]1NC(=O)[C@@H]2CSSC[C@H](NC(=O)[C@H](C)N)C(=O)N[C@@H](CO)C(=O)N[C@@H](CCCCN)C(=O)N3CCC[C@H]3C(=O)N[C@H]3CSSC[C@H](NC(=O)[C@H](CCCNC(=N)N)NC(=O)CNC(=O)[C@H](CC(N)=O)NC1=O)C(=O)N[C@@H](Cc1c[nH]cn1)C(=O)N[C@H](C(=O)N[C@@H](Cc1ccc(O)cc1)C(=O)N[C@@H](Cc1ccc(O)cc1)C(=O)O)CSSC[C@H](NC(=O)[C@H](Cc1ccc(O)cc1)NC(=O)[C@H](CCCCN)NC(=O)[C@H](CCCNC(=N)N)NC3=O)C(=O)N[C@@H]([C@@H](C)CC)C(=O)N[C@@H](CC(=O)O)C(=O)N[C@@H](CCCCN)C(=O)NCC(=O)N[C@@H](C)C(=O)N[C@@H](CCCNC(=N)N)C(=O)N[C@@H](CC(N)=O)C(=O)NCC(=O)N[C@@H](CCCCN)C(=O)N2 [BmK86-P1] (H-ACSKPCRKYCIDKGARNGKCINGRCHCYY-OH; disulfide 2-20, 6-25, 10-27 (inferred); N-terminus and C-terminus assumed)
inhibition of hKv1.2-P359S channel currents (hKv1.2-P359S): 72.4 ± 5.5% | inhibition of Kv4.3 channel currents (rKv4.3 channel): 4.9 ± 0.3% | inhibition of hKv1.3 channel currents (hKv1.3 channel): 52.1 ± 3.1% | inhibition of hKv1.2-Q357H channel currents (hKv1.2-Q357H): 37.3 ± 1.5% | IC50 (Kv1.3 channel): 597 ± 114 nM | inhibition of hKv1.2-M3 chimeric channel currents [1]: 1.5 ± 0.6% | thermal stability of secondary structure [2]: thermally stable

From paper PMC8472965, “BmK86-P1, a New Degradation Peptide with Desirable Thermostability and Kv1.2 Channel-Specific Activity from Traditional Chinese Scorpion Medicinal Material” (Toxins, 2021)
